Series [1] concerns GM15850. Description: Induction of FRDA expression in human GM15850 cells derived from Friedreich's ataxia patient assessed as increase in FXN transcription incubated for 24 hrs by RT-PCR analysis. It counts as functional, cell-based.
The subject of series [2] is GM15850. Description: Induction of FRDA expression in human GM15850 cells derived from Friedreich's ataxia patient assessed as increase in FXN transcription at 100 to 300 nM incubated for 24 hrs by RT-PCR analysis. To be noted: dose 100-300 nM. The series is classed as functional, cell-based.
For series [3], the system named is GM15850. Description: Cytotoxicity against human GM15850 cells derived from Friedreich's ataxia patient assessed as decrease in cell viability at >300 nM incubated for 48 hrs by cell count reagent SF based colorimetric assay. It counts as toxicity. The following applies: gm15850, 48 h, 0.3 µM.
Series [4] concerns GM15850. Description: Protective activity against human GM15850 cells derived from Friedreich's ataxia patient assessed as decrease in cytotoxicity at 1 uM incubated for 48 hrs in presence of 0.2 to 10 mM 2-hydroxypropyl-beta-cyclodextrin adjuvant by cell count reagent SF based colorimetric assay. The series is classed as functional.
The test system of series [5] is GM15850. Put plainly: Protective activity against human GM15850 cells derived from Friedreich's ataxia patient assessed as decrease in cytotoxicity at 1 uM incubated for 48 hrs in presence of 1 mM 2-hydroxypropyl-beta-cyclodextrin adjuvant by cell count reagent SF based colorimetric assay. It counts as functional.
The nature of series [6]: Aqueous solubility of compound incubated for 20 mins by HPLC analysis. The series is classed as physicochemical. The following applies: buffer.
Series [7] has as its system GM15850. Description: Induction of FRDA expression in human GM15850 cells derived from Friedreich's ataxia patient assessed as increase in FXN transcription at 100 to 1000 nM incubated for 24 hrs in presence of 1.0 to 2.5 mM 2-hydroxypropyl-beta-cyclodextrin adjuvant by RT-PCR analysis. It counts as functional, cell-based. The following applies: dose 100-1000 nM.
Series [8] relates to GM15850. Put plainly: Induction of FRDA expression in human GM15850 cells derived from Friedreich's ataxia patient assessed as increase in FXN transcription at >300 nM incubated for 24 hrs by RT-PCR analysis. It counts as functional, cell-based.

Activity calls are given as the source filed them. The calls are words filed in the database; no cut-off is given here.

Consider `Cc1sc2c(c1C)C(c1ccc(Cl)cc1)=N[C@@H](CC(=O)NCCOCCOCCOCCOCCOCCOCCC(=O)NCCCCCCCNC(=O)CCNC(=O)c1nc(NC(=O)CCNC(=O)c3cc(NC(=O)c4nc(NC(=O)CCNC(=O)c5cc(NC(=O)c6nc(NC(=O)CCCN(C)C)cn6C)cn5C)cn4C)cn3C)cn1C)c1nnc(C)n1-2`, for which, in series [1], the result was inactive.
On the same count and under the same terms, in the case of `Cc1sc2c(c1C)C(c1ccc(Cl)cc1)=N[C@@H](CC(=O)NCCOCCOCCOCCOCCOCCOCCC(=O)NCCCN(C)CCCNC(=O)CCNC(=O)c1nc(NC(=O)CCNC(=O)c3cc(NC(=O)c4nc(NC(=O)CCNC(=O)c5cc(NC(=O)c6nc(NC(=O)CCCN(C)C)cn6C)cn5C)cn4C)cn3C)cn1C)c1nnc(C)n1-2` it was “inactive”.
As to `Cc1sc2c(c1C)C(c1ccc(Cl)cc1)=N[C@@H](CC(=O)NCCOCCOCCOCCOCCOCCOCCC(=O)NCCCCCCCNC(=O)CCNC(=O)c1nc(NC(=O)CCNC(=O)c3cc(NC(=O)c4nc(NC(=O)CCNC(=O)c5cc(NC(=O)c6nccn6C)cn5C)cn4C)cn3C)cn1C)c1nnc(C)n1-2`, the outcome in series [2] and in series [5] was Active. For the same compound, the Activity result in series [3] is “Toxic”. In addition, the outcome in series [4], in series [7] and in series [8] was inactive. Further, the solubility result in series [6] is listed as “Soluble”.
On to `Cc1sc2c(c1C)C(c1ccc(Cl)cc1)=N[C@@H](CC(=O)NCCOCCOCCOCCOCCOCCOCCC(=O)NCCCN(C)CCCNC(=O)CCNC(=O)c1nc(NC(=O)CCNC(=O)c3cc(NC(=O)c4nc(NC(=O)CCNC(=O)c5cc(NC(=O)c6nccn6C)cn5C)cn4C)cn3C)cn1C)c1nnc(C)n1-2`, for which the outcome in series [2] and in series [1] was Active. Further, in series [6], the solubility entry was “Soluble”.

The values above are taken from ChEMBL document CHEMBL5252571, “Substitution to hydrophobic linker and formation of host-guest complex enhanced the effect of synthetic transcription factor made of pyrrole-imidazole polyamide” (Bioorg Med Chem, 2023).
